The record followed here is US11078197B2, “5-membered and bicyclic heterocyclic amides as inhibitors of rock” (BRISTOL-MYERS SQUIBB COMPANY, priority 2017, dated 2021).

In the test the target is ROCK2 (Homo sapiens (Human), UniProt O75116). In words: ROCK2 assay (peptide phosphorylation, LABCHIP 3000 Reader). It is filed as biochemical. The following applies: 5 μM ATP, 1.5 μM peptide substrate, dose-response. How it is done: After incubation, the reaction was terminated by the addition of EDTA and the phosphorylated and non-phosphorylated peptides separated using a LABCHIP®3000 Reader (Caliper Life Sciences). […] Compounds were tested in dose-response format, and the inhibition of kinase activity was calculated at each concentration of compound. […] Representative Examples were tested in the ROCK2 assay described above and found having ROCK2 inhibitory activity.
Sequence of ROCK2 (O75116 whole entry, species assumed): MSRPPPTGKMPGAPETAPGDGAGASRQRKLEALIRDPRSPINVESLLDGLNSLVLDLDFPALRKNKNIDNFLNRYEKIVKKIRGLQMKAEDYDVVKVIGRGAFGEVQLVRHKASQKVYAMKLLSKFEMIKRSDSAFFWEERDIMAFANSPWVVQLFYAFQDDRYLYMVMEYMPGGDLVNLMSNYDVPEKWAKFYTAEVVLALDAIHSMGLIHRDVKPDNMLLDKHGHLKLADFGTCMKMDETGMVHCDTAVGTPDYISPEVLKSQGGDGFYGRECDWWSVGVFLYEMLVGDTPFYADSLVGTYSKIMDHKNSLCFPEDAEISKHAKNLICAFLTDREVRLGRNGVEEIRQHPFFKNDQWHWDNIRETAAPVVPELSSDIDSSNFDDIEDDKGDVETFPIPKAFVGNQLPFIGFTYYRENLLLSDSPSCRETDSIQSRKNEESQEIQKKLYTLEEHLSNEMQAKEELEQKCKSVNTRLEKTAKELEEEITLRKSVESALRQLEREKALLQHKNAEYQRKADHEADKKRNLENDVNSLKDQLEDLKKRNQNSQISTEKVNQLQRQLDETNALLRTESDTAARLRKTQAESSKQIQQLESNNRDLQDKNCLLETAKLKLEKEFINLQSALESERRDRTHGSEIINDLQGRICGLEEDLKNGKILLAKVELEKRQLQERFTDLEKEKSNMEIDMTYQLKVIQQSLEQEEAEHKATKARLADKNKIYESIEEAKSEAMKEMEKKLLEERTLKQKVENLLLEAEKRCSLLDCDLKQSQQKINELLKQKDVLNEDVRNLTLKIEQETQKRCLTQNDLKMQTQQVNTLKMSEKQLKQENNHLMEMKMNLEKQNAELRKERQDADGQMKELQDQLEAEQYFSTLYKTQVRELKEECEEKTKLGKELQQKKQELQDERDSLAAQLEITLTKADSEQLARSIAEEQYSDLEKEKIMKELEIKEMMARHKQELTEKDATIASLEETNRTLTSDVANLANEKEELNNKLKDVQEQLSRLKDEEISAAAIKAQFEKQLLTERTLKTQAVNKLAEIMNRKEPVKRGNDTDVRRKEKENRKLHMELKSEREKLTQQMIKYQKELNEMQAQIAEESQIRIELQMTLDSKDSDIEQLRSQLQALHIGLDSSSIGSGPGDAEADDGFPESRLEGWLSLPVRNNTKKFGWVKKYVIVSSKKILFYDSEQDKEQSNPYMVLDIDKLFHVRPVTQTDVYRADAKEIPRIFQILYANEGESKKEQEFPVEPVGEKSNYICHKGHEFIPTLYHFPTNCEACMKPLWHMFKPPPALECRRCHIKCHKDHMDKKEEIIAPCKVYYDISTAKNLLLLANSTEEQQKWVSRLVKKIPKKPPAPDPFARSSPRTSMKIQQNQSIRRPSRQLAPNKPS
The compound `NC(=O)c1cc2c(nc1O[C@H]1C[C@@]3(C[C@H](NC(=O)c4cccc(OC(F)(F)F)c4)C3)C1)CCOC2` (stereo partly shown) [Example 143, 2-{[(4s)-6-[3-(trifluoromethoxy)benzamido]spiro[3.3]heptan-2-yl]oxy}-5H,7H,8H-pyrano[4,3-b]pyridine-3-carboxamide] displayed an IC50 of 109 nM. Turning to `CC(C)CC1NC(=O)N([C@H]2C[C@@]3(C[C@H](Oc4nc(C5CC5)sc4C(N)=O)C3)C2)C1=O` (single isomer, unassigned) [Example 110, 2-cyclopropyl-4-{[{aR)-6-[4-(2-methylpropyl)-2,5-dioxoimidazolidin-1-yl]spiro[3.3]heptan-2-yl]oxy}-1,3-thiazole-5-carboxamide], half-maximal inhibition (IC50) was put at 12.2 nM. The result for `CC(C)CC1NC(=O)N([C@H]2CC3(C[C@H](Oc4nn5ccccc5c4C(N)=O)C3)C2)C1=O` (stereo partly drawn) [Example 139, 2-(((2S,4s,6S)-6-(4-isobutyl-2,5-dioxoimidazolidin-1-yl)spiro[3.3]heptan-2-yl)oxy)pyrazolo[1,5-a]pyridine-3-carboxamide] reads 208 nM; that for `N#Cc1cc(C(=O)N[C@H]2C[C@]3(C2)C[C@H](Oc2nc4c(cc2C(N)=O)COCC4)C3)ccc1Br` (stereo partly drawn) [Example 92, 2-{[(aR)-6-(4-bromo-3-cyanobenzamido)spiro[3.3]heptan-2-yl]oxy}-5H,7H,8H-pyrano[4,3-b]pyridine-3-carboxamide], 191 nM; that for `NC(=O)c1cn(C2CC2)nc1O[C@H]1C[C@@]2(C[C@H](NC(=O)c3cnn4cc(OCC(F)F)ccc34)C2)C1` (stereo partly drawn) [Example 57, 1-cyclopropyl-3-{[(aR)-6-[6-(2,2-difluoroethoxy)pyrazolo[1,5-a]pyridine-3-amido]spiro[3.3]heptan-2-yl]oxy}-1H-pyrazole-4-carboxamide], 15.9 nM. Then `Cc1c(C(=O)N[C@H]2C[C@]3(C2)C[C@H](Oc2nn(-c4ccccc4)cc2C(N)=O)C3)cnn1-c1ccc(C#N)cc1` (stereo partly drawn) [Example 38, 3-({(aR)-6-[1-(4-cyanophenyl)-5-methyl-1H-pyrazole-4-amido]spiro[3.3]heptan-2-yl}oxy)-1-phenyl-1H-pyrazole-4-carboxamide], with 426 nM; and `CC(C)(O)COc1ccc2c(C(=O)N[C@H]3C[C@]4(C3)C[C@H](Oc3nn(-c5ccccc5C#N)cc3C(N)=O)C4)cnn2c1C1CC1` (stereo partly drawn) [Example 31, 1-(2-cyanophenyl)-3-({(aR)-6-[7-cyclopropyl-6-(2-hydroxy-2-methylpropoxy)pyrazolo [1,5-a]pyridine-3-amido]spiro[3.3]heptan-2-yl}oxy)-1H-pyrazole-4-carboxamide], with 73.3 nM; and `Cc1csc2cc(C(N)=O)c(O[C@H]3C[C@@]4(C[C@H](NC(=O)c5cnc6ccc(F)cc6c5)C4)C3)nc12` (stereo partly drawn) [Example 99, 6-fluoro-N-[(aR)-6-({6-carbamoyl-3-methylthieno[3,2-b]pyridin-5-yl}oxy)spiro[3.3]heptan-2-yl]quinoline-3-carboxamide], with 67.1 nM.

`CC(C)(O)COc1ccc2c(C(=O)N[C@H]3C[C@]4(C3)C[C@H](Oc3nn5cc(-c6ccc(F)nc6)ccc5c3C(N)=O)C4)nn(C(F)F)c2c1` (stereo partly shown) [Example 135, 1-(difluoromethyl)-6-(2-hydroxy-2-methylpropoxy)-N-[(4s)-6-{[3-carbamoyl-6-(6-fluoropyridin-3-yl)pyrazolo[1,5-a]pyridin-2-yl]oxy}spiro[3.3]heptan-2-yl]-1H-indazole-3-carboxamide] returned an IC50 of 390 nM.

`NC(=O)c1sc(C2CC2)nc1O[C@H]1C[C@@]2(C[C@H](NC(=O)c3cnn4cc(OCC(O)(C(F)(F)F)C(F)(F)F)ccc34)C2)C1` (stereo partly drawn) [Example 61, 2-cyclopropyl-4-{[(aR)-6-{6-[3,3,3-trifluoro-2-hydroxy-2-(trifluoromethyl)propoxy]pyrazolo[1,5-a]pyridine-3-amido}spiro[3.3]heptan-2-yl]oxy}-1,3-thiazole-5-carboxamide] gave an IC50 of 55.5 nM.
